Assays:
[1] = system: T8R16/409 (RNA, aptamer) GCCUGCAAGUGCGACGAAUGGGAAAUAGCAAAAGAAAACAGAGACACCGACAUGUUAGAGACCACCGACGUG; experiment: isothermal titration calorimetry; conditions: 100 mM NaCl, 5 mM MgCl2, 50 mM HEPES, pH 7.6, 25 °C
[2] = system: T5R8/359 (RNA, aptamer) GGAUGAGCGACGCUGGAAGGAAGAAAAUGCAGAAAAAAAGAAAAAAAUGUCUGGGUCUGGCGACUGCUC; experiment: isothermal titration calorimetry; conditions: 100 mM NaCl, 5 mM MgCl2, 50 mM HEPES, pH 7.6, 25 °C
[3] = RNA 6 μM, nucleotide 100–200 μM in syringe

Kd ([1]; one-site fit) | binding [2, 3] | binding [1, 3] | Kd ([2]; one-site fit with stoichiometry constrained to 0.5) | Structure (SMILES)
~ 0.5 μM | no |  |  | Nc1nc2c(ncn2[C@@H]2O[C@H](COP(=O)(O)OP(=O)(O)OP(=O)(O)O)[C@@H](O)[C@H]2O)c(=O)[nH]1
 |  | no | ~ 7 μM | Nc1ncnc2c1ncn2[C@@H]1O[C@H](COP(=O)(O)OP(=O)(O)OP(=O)(O)O)[C@@H](O)[C@H]1O

Reference: publication PMC7615363 (2023)
